From patent US20260365690A1, “COMPOUND FOR RNA CAPPING AND USE THEREOF” (GUANGZHOU HENOVCOM BIOSCIENCE CO., LTD., priority 2022, published 2026)

Tests used:
[1] = test system: mRNA; test: mRNA synthesis by in vitro transcription (co-transcriptional capping), final product mass; format: biochemical; details: obtained from 20 μL mRNA synthesis reaction system; T7 RNA Polymerase; cap analog 4 mM; 37 °C, 2 to 3 hours
Experimental: (§1) 1) The plasmids were linearized and the DNA templates were purified.
(§2) 2) The mRNA was synthesized by in vitro transcription, using 11 cap structures of the present disclosure, positive control CleanCap®AG (3′OMe) (Trilink, N-7413), negative control (uncapped mRNA) and blank control (DNase/RNase-Free water), respectively.
(§3) The reaction was carried out at 37 °C for 2 to 3 hours. TURBO DNase digestion was carried out for 15 minutes. The mRNA was precipitated by LiC for 30 min or more or overnight, and the mRNA precipitate was washed with 75% ethanol, dried briefly to evaporate the ethanol, and the mRNA was redissolved with RNase-Free water.
3) The transcription product was purified, and the reaction yield was calculated to provide the test results of some compounds, as shown in Table 2.

[2] = test system: mRNA; test: Capping efficiency of mRNA by LC-MS; format: biochemical; details: cap analog 4 mM in in vitro transcription, RNase H cleaved 5′ fragment
Experimental: as §1, §2, §3
Gradient annealing was performed in a PCR instrument: […]
5) Magnetic beads were pre-treated and bound to probes.
100 μL of magnetic beads were taken and placed on a magnetic stand. The storage solution was discarded, and 100 μL of 1*BW solution was added thereto. After mixing well, the mixture was placed on the magnetic stand, and the supernatant was discarded. The wash was carried out three times in the same way. 100 μL of wash A buffer was added thereto. After mixing well, the mixture was placed on the magnetic stand, and the supernatant was discarded. The wash was carried out three times in the same way. 100 μL of wash B buffer was added thereto. After mixing well, the mixture was placed on the magnetic stand, and the supernatant was discarded. The wash was carried out three times in the same way. 120 μL of the sample was added to the magnetic bead solution and incubated for 30 min at room temperature with gentle mixing while incubating.
6) The mRNA was cut to obtain the 5′ single-stranded sequence of mRNA bound to probes.
20 μL of RNase H (5 U/μL) was added thereto, incubated at 37 °C for 3 hours, and mixed well every half hour. 100 μL of 1*BW solution was added thereto. After mixing well, the mixture was placed on the magnetic stand, and the supernatant was discarded. The wash was carried out three times in the same way. 100 μL of deionized water solution was added thereto. After mixing well, the mixture was placed on the magnetic stand, and the supernatant was discarded. The wash was carried out three times in the same way. 100 μL of 75% methanol was added thereto at 80 °C, then the mixture was heated to 80 °C on a heating plate and held for 3 min, placed on the magnetic stand, and the supernatant was aspirated. The sample was dried at room temperature for 45 min to 10 μL using an evaporative centrifuge and then resuspended in 50 μL of 100 μM EDTA/1% MeOH for LC-MS analysis.
LC-MS was used to analyze the capping efficiency of mRNA synthesized by analogues with different cap structures. The capping efficiency results of some compounds in the detection results are now provided.

[3] = test system: HEK293T cells; test: Expression efficiency of capped luciferase mRNAs in HEK293T cells; format: cell-based; details: 6 h after transfection of capped luciferase mRNA into HEK293T cells; ratio to N-7413 (= 1)
Experimental: 2. Evaluation of Expression Efficiency of Different Capped Luciferase mRNAs in HEK293T Cells
1) HNE293T cells were cultured in DMEM medium containing 10% FBS and penicillin/streptomycin at 37 °C and 5% CO2.
2) The cultured HEK293T cells were spread in a 96-well plate with 1.25×10^4 cells per well.
3) After the cells completely adhered to the wall, 0.5 μg of a mixture of mRNA sample and Polyplus jetMESSENGER was added to each well of cells, and cultured at 37 °C and 5% CO2 for 6 hours.
4) The growth medium was removed from the cells to be tested and the cells were rinsed with PBS. After centrifugation to remove PBS, 50 μL of 1× lysis buffer was added thereto, and cells and all liquid were transferred to a microcentrifuge tube, and then centrifuged at 12000×g and 4 °C for 2 min.
5) The supernatant was transferred to a new tube. Fluorescence readings were detected using the ONE-Glo Luciferase Assay System Kit.
3. All compounds, N-7413, negative control and blank control were tested under the same conditions, and some experimental results in the test results are shown in Table 5.
The relative fluorescence reading results (6 h) after transfection of capped mRNA into 293T cells are now provided, as shown in Table 5. It can be seen from the FIGURE that the mRNA capped by the compound of the present disclosure has a high expression level, and some cap structures can enable higher expression efficiency of mRNA compared to N-7413.

| Compound | Final product mass [1] [µg] | Capping efficiency [2] | Relative fluorescence reading [3] |
| --- | --- | --- | --- |
| C=CC[C@H]1[C@@H](O)[C@H](n2c[n+](C)c3c(=O)[nH]c(N)nc32)O[C@@H]1COP(=O)(O)OP(=O)(O)OP(=O)(O)OC[C@H]1O[C@@H](n2cnc3c(N)ncnc32)[C@H](OC)[C@@H]1OP(=O)(O)OC[C@H]1O[C@@H](n2cnc3c(=O)[nH]c(N)nc32)[C@H](O)[C@@H]1O [Compound 710] | 108 | A (100% > A ≥ 95%) | 1.90 |
| CO[C@@H]1[C@H](OP(=O)(O)OC[C@H]2O[C@@H](n3cnc4c(=O)[nH]c(N)nc43)[C@H](O)[C@@H]2O)[C@@H](COP(=O)(O)OP(=O)(O)CP(=O)(O)OC[C@H]2O[C@@H](n3c[n+](C)c4c(=O)[nH]c(N)nc43)[C@H](O)[C@@H]2CCF)O[C@H]1n1cnc2c(N)ncnc21 [Compound 103] | 94 | – | 1.45 |
| CO[C@@H]1[C@H](OP(=O)(O)OC[C@H]2O[C@@H](n3cnc4c(=O)[nH]c(N)nc43)[C@H](O)[C@@H]2O)[C@@H](COP(=O)(O)OP(=O)(O)OP(=O)(O)OC[C@H]2O[C@@H](n3c[n+](C)c4c(=O)[nH]c(N)nc43)[C@H](O)[C@@H]2NC(C)=O)O[C@H]1n1cnc2c(N)ncnc21 [Compound 289] | 113 | A (100% > A ≥ 95%) | 1.70 |
| C/C=C/C[C@H]1[C@@H](O)[C@H](n2c[n+](C)c3c(=O)[nH]c(N)nc32)O[C@@H]1COP(=O)(O)OP(=O)(O)OP(=O)(O)OC[C@H]1O[C@@H](n2cnc3c(N)ncnc32)[C@H](OC)[C@@H]1OP(=O)([O-])OC[C@H]1O[C@@H](n2cnc3c(=O)[nH]c(N)nc32)[C@H](O)[C@@H]1O [Compound 711] | 106 | – | 1.86 |
| CCC(=O)N[C@H]1[C@@H](O)[C@H](n2c[n+](C)c3c(=O)[nH]c(N)nc32)O[C@@H]1COP(=O)(O)OP(=O)(O)OP(=O)(O)OC[C@H]1O[C@@H](n2cnc3c(N)ncnc32)[C@H](OC)[C@@H]1OP(=O)(O)OC[C@H]1O[C@@H](n2cnc3c(=O)[nH]c(N)nc32)[C@H](O)[C@@H]1O [Compound 291] | 106 | – | 1.60 |
| CCC[C@H]1[C@@H](O)[C@H](n2c[n+](C)c3c(=O)[nH]c(N)nc32)O[C@@H]1COP(=O)(O)OP(=O)(O)OP(=O)(O)OC[C@H]1O[C@@H](n2cnc3c(NC)ncnc32)[C@H](OC)[C@@H]1OP(=O)(O)OC[C@H]1O[C@@H](n2cnc3c(=O)[nH]c(N)nc32)[C@H](O)[C@@H]1O [Compound 719] | 97 | – | 1.69 |
| CCCCCCNC(=O)[C@H]1[C@@H](O)[C@H](n2c[n+](C)c3c(=O)[nH]c(N)nc32)O[C@@H]1COP(=O)(O)OP(=O)(O)OP(=O)(O)OC[C@H]1O[C@@H](n2cnc3c(N)ncnc32)[C@H](OC)[C@@H]1OP(=O)(O)OC[C@H]1O[C@@H](n2cnc3c(=O)[nH]c(N)nc32)[C@H](O)[C@@H]1O [Compound 205] | 98 | – | 1.52 |
| CO[C@@H]1[C@H](OP(=O)(O)OC[C@H]2O[C@@H](n3cnc4c(=O)[nH]c(N)nc43)[C@H](O)[C@@H]2O)[C@@H](COP(=O)(O)OP(=O)(O)OP(=O)(O)OC[C@H]2O[C@@H](n3c[n+](C)c4c(=O)[nH]c(N)nc43)[C@H](O)[C@@H]2C)O[C@H]1n1cnc2c(N)ncnc21 [Compound 1] | 96 | A (100% > A ≥ 95%) | 1.74 |
| CO[C@@H]1[C@H](OP(=O)([O-])OC[C@H]2O[C@@H](n3cnc4c(=O)[nH]c(N)nc43)[C@H](O)[C@@H]2O)[C@@H](COP(=O)(O)OP(=O)(O)OP(=O)(O)OC[C@H]2O[C@@H](n3c[n+](C)c4c(=O)[nH]c(N)nc43)[C@H](O)[C@@H]2OC)O[C@H]1n1cnc2c(N)ncnc21 [Compound N-7413, reference compound] | 114 | – | 1.00 |
| CC[C@H]1[C@@H](O)[C@H](n2c[n+](C)c3c(=O)[nH]c(N)nc32)O[C@@H]1COP(=O)(O)OP(O)(=S)OP(=O)(O)OC[C@H]1O[C@@H](n2cnc3c(N)ncnc32)[C@H](OC)[C@@H]1OP(=O)([O-])OC[C@H]1O[C@@H](n2cnc3c(=O)[nH]c(N)nc32)[C@H](O)[C@@H]1O (stereo partly shown) [Compound 718] | 106 | – | 1.66 |
| CNC(=O)[C@H]1[C@@H](O)[C@H](n2c[n+](C)c3c(=O)[nH]c(N)nc32)O[C@@H]1COP(=O)(O)OP(=O)(O)OP(=O)(O)OC[C@H]1O[C@@H](n2cnc3c(N)ncnc32)[C@H](OC)[C@@H]1OP(=O)(O)OC[C@H]1O[C@@H](n2cnc3c(=O)[nH]c(N)nc32)[C@H](O)[C@@H]1O [Compound 191] | 100 | – | 1.68 |
| CO[C@@H]1[C@H](OP(=O)(O)OC[C@H]2O[C@@H](n3cnc4c(=O)[nH]c(N)nc43)[C@H](O)[C@@H]2O)[C@@H](COP(=O)(O)OP(=O)(O)OP(=O)(O)OC[C@H]2O[C@@H](n3c[n+](C)c4c(=O)[nH]c(N)nc43)[C@H](O)[C@@H]2NC(=O)C(C)C)O[C@H]1n1cnc2c(N)ncnc21 [Compound 293] | 103 | – | 1.68 |
| CO[C@@H]1[C@H](OP(=O)(O)OC[C@H]2O[C@@H](n3cnc4c(=O)[nH]c(N)nc43)[C@H](O)[C@@H]2O)[C@@H](COP(=O)(O)OP(=O)(O)OP(=O)(O)OC[C@H]2O[C@@H](n3c[n+](C)c4c(=O)[nH]c(N)nc43)[C@H](O)[C@@H]2NC(=O)C(C)(C)C)O[C@H]1n1cnc2c(N)ncnc21 [Compound 722] | 103 | – | 1.74 |
| CO[C@@H]1[C@H](OP(=O)(O)OC[C@H]2O[C@@H](n3cnc4c(=O)[nH]c(N)nc43)[C@H](O)[C@@H]2O)[C@@H](COP(=O)(O)OP(=O)(O)OP(=O)(O)OC[C@H]2O[C@@H](n3c[n+](C)c4c(=O)[nH]c(N)nc43)[C@H](O)[C@@H]2N=[N+]=[N-])O[C@H]1n1cnc2c(N)ncnc21 [Compound 399] | 117 | – | 1.51 |
| CO[C@@H]1[C@H](OP(=O)(O)OC[C@H]2O[C@@H](n3cnc4c(=O)[nH]c(N)nc43)[C@H](O)[C@@H]2O)[C@@H](COP(=O)(O)OP(=O)(O)OP(=O)(O)OC[C@H]2O[C@@H](n3c[n+](C)c4c(=O)[nH]c(N)nc43)[C@H](O)[C@@H]2NC(=O)c2ccccc2)O[C@H]1n1cnc2c(N)ncnc21 [Compound 297] | 110 | – | 1.79 |
| CO[C@@H]1[C@H](CC(=O)NC[C@H]2O[C@@H](n3cnc4c(=O)[nH]c(N)nc43)[C@H](O)[C@@H]2O)[C@@H](COP(=O)(O)OP(=O)(O)OP(=O)(O)OC[C@H]2O[C@@H](n3c[n+](C)c4c(=O)[nH]c(N)nc43)[C@H](O)[C@@H]2C)O[C@H]1n1cnc2c(N)ncnc21 [Compound 59] | 91 | – | 0.71 |
| C=CC[n+]1cn([C@@H]2O[C@H](COP(=O)(O)OP(=O)(O)OP(=O)(O)OC[C@H]3O[C@@H](n4cnc5c(N)ncnc54)[C@H](OC)[C@@H]3OP(=O)(O)OC[C@H]3O[C@@H](n4cnc5c(=O)[nH]c(N)nc54)[C@H](O)[C@@H]3O)[C@@H](CC)[C@H]2O)c2nc(N)[nH]c(=O)c21 [Compound 716] | 103 | – | 1.50 |
